Measured values: patent US20080004266A1, “Method for treating proliferative disorders associated with protooncogene products” (priority 2006, published 2008)

What was measured:
[1] = tested on: A375 cells (B-raf V600E); test: Cell survival in A375 melanoma cells (Cell Counting Kit-8); format: cell-based, human; conditions: 72 hours
Protocol: Human melanoma cell line, A375 (2×10^6 cells), which contains the V600E mutation in the B-raf protein that confers constitutive […] kinase activity, was obtained from American Type Culture Collection. A375 cells (20,000 cells/well) were cultured in 96-well plates and maintained at 37° C. for several hours. The cells were incubated at 37° C. for 72 hours with various concentrations of compound 226, 17AAG or 17DMAG. 17AAG and 17DMAG are Hsp90 inhibitors that are currently in clinical trials and are used here as positive controls for Hsp90 inhibition. Cell survival was measured with Cell Counting Kit-8 (Dojindo Laboratories, Cat # CK04).

[2] = tested on: NPM-ALK; conditions: NPM-ALK expressing ALCL cells; cited from earlier work
[3] = tested on: Kasumi-1 cells; conditions: mutation in c-kit; cited from earlier work
[4] = tested on: K562 cells (Bcr-Abl); test: Cell survival in K562 cells (Cell Counting Kit-8); format: cell-based, human; conditions: 72 hours
Protocol: Growth of this tumor cell line is dependent upon the expression of the Bcr-Abl fusion protein (C. Gambacarti-Passerini et al., Blood Cells Mol. Dis. 23:380-394, 1997). K562 cells (20,000 cells/well) were cultured in 96-well plates and maintained at 37° C. for several hours. […] 17AAG, DMAG, and Radicical are Hsp90 inhibitors that are currently in clinical trials and are used here as positive controls for Hsp90 inhibition. […] Cell survival was measured with Cell Counting Kit-8 (Dojindo Laboratories, Cat # CK04).

[5] = tested on: B-raf; conditions: A375 (V600E) versus CHL cells (wild type B-raf); cited from earlier work
[6] = tested on: V600E mutant B-raf; test: Degradation of B-raf in A375 melanoma cells (Western blot); format: cell-based, human; conditions: 18 hours, at 0.5 mM and 0.1 mM (so in the source)
Protocol: […] After 18 hours, the cells were lysed with 1× lysis buffer and a western blot was perform, and B-raf was detected with anti-B-raf antibody.

[7] = tested on: Karpas-299 cells (NPM-ALK); test: Cell survival in Karpas-299 cells (Cell Counting Kit-8); format: cell-based, human; conditions: 72 hours
Protocol: Growth of this tumor cell line is dependent upon the expression of the NPM-ALK fusion protein. Karpas-299 cells (20,000 cells/well) were cultured in 96-well plates and maintained at 37° C. for several hours. The cells were incubated at 37° C. for 72 hours with various concentrations of compound 226 of the invention, 17AAG, and 17DMAG. 17AAG and 17DMAG are Hsp90 inhibitors that are currently in clinical trials and are used here as positive controls for Hsp90 inhibition. Cell survival was measured with Cell Counting Kit-8 (Dojindo Laboratories, Cat # CK04).

[8] = tested on: Kasumi-1 cells (c-Kit N822K); test: Cell survival in Kasumi-1 cells (Cell Counting Kit-8); format: cell-based, human; conditions: 72 hours
Protocol: Kasumi-1 cells (20,000 cells/well) were cultured in 96-well plates and maintained at 37° C. for several hours. […] 17AAG and DMAG are Hsp90 inhibitors that are currently in clinical trials and are used here as positive controls for Hsp90 inhibition. […] Cell survival was measured with Cell Counting Kit-8 (Dojindo Laboratories, Cat # CK04).

[9] = tested on: NPM-ALK; test: Degradation of NPM-ALK in Karpas-299 cells (Western blot); format: cell-based, human; conditions: 18 hours
Protocol: Anaplastic large-cell lymphoma cells, Karpas-299 cells (the German resource center for biological material) (2×10^6 cells), which harbor the fusion protein NPM-ALK, were treated (0.05 μM, 0.1 μM and 0.5 μM) with either Compound 226 or 17-AAG. After 18 hours and the cells were lysed with 1× lysis buffer and a western blot was perform using an anti-ALK antibody to detect and phosphorylated NPM-ALK and total NPM-ALK.

[10] = tested on: NCI-H1975 cells (EGFR T790M and L858R); test: Cell survival in NCI-H1975 cells (Cell Counting Kit-8); format: cell-based, human; conditions: 72 hours
Protocol: Human lung cancer cell line NCI-H1975 which harbors both the T790M and the L858R mutations in EGFR was obtained from American Type Culture Collection. NCI-H1975 (10,000 cells/well) were cultured in 96-well plates and maintained at 37° C. for several hours. The cells were incubated at 37° C. for 72 hours with various concentrations of compound 226 of the invention, 17AAG or DMAG. 17AAG and DMAG are Hsp90 inhibitors that are currently in clinical trials and are used here as positive controls for Hsp90 inhibition. Cell survival was measured with Cell Counting Kit-8 (Dojindo Laboratories, Cat # CK04).

[11] = tested on: Flt3 with Hsp90; conditions: cited from earlier work
[12] = tested on: leukemia cell that express either wild type FLT3 or FLT3-ITD mutations; conditions: cited from earlier work
[13] = tested on: phosphorylated Bcr-Abl; test: Degradation of Bcr-Abl in KU812 cells (Western blot); format: cell-based; conditions: 18 hours
Protocol: KU812 chronic myeloid leukemia cells (ATCC) (2×10^6 cells), which harbor the Philadelphia chromosome that produces Bcr-Abl tyrosine kinase, were treated (0.1 μM and 1.0 μM) with either Compound 226, 17-AAG or 17-DMAG. After 18 hours, the cells were lysed with 1× lysis buffer, and a western blot was perform using anti-BCR-ABL antibody to detect phosphorylated Bcr-Abl.

[14] = tested on: MV 4-11 cells (FLT3-ITD); test: Cell survival in MV-4-11 cells (Cell Counting Kit-8); format: cell-based, human; conditions: 72 hours
Protocol: Human acute myelogenous leukemia (AML) cell line, MV 4-11 (ATCC #CRL-9591), was obtained from the American Type Culture Collection (ATCC; Manassas, Va., USA). Growth of this tumor cell line is dependent upon the expression of an activated form of the FLT3 tyrosine kinase receptor carrying an internal tandem duplication (ITD) mutation, which is the most common molecular defect associated with AML (K. W. Yee et al., Blood 100:2941-2949, 2002). MV 4-11 cells (20,000 cells/well) were cultured in 96-well plates and maintained at 37° C. for several hours. The cells were incubated at 37° C. for 72 hours with various concentrations of compounds of the invention, 17AAG, or DMAG. 17AAG and DMAG are Hsp90 inhibitors that are currently in clinical trials and are used here as positive controls for Hsp90 inhibition. Cell survival was measured with Cell Counting Kit-8 (Dojindo Laboratories, Cat # CK04).

For `C=CCNC1=C2C[C@@H](C)C[C@H](OC)[C@H](O)[C@@H](C)/C=C(\C)[C@H](OC(N)=O)[C@@H](OC)/C=C\C=C(/C)C(=O)NC(=CC1=O)C2=O` [Compound 17AAG, 17-allylamino-17-desmethoxygeldanamycin], the IC50 [1] is given as 70 nM, the “cell cycle and apoptosis” value [2] is given as “induce cell-cycle arrest and apoptosis” and the “degradation of NPM-ALK” value [2] is given as “increased degradation of NPM-ALK”. The apoptosis [3] was “induce apoptosis”, the IC50 [4] was 122 nM and the “degradation of B-raf” value [5] was “degraded more rapidly than in CHL cells”. The “degradation of V600E mutant B-raf” value [6] was “did not induce significant degradation”, the IC50 [7] was 506 nM and the IC50 [8] was 685 nM. For the same compound, the “degradation of phosphorylated and total NPM-ALK” value ([9]; 0.05 μM and 0.1 μM) was “no effect”, the “degradation of phosphorylated and total NPM-ALK” value ([9]; 0.5 μM) was “partial degradation” and the IC50 [10] was 446 nM. The “association of Flt3 with Hsp90” value [11] was “disrupt the association of Flt3 with Hsp90”, the “growth of leukemia cells” value [12] was “inhibited” and the “degradation of phosphorylated Bcr-Abl” value ([13]; 0.1 μM) was “did not degrade”. The “degradation of phosphorylated Bcr-Abl” value ([13]; 1.0 μM) was “partially degraded” and the IC50 [14] was 35 nM.
